From paper PMC9973354 (mBio, 2022)
In brackets after ≈: the same amount, converted by molar mass.

Key:
Type in all cases: cell-based, Pseudomonas aeruginosa
[1] = system: PA14 ΔfpvA ΔfpvB pHERD20T-fpvA; assay: Checkerboard assay TS and siderophores, FpvA expressed; conditions: 10:90 + 2% arabinose
Description: We investigated this hypothesis by treating the ΔfpvA ΔfpvB mutant complemented with fpvA or fpvB with TS and pyoverdine-Fe^3+. If pyoverdine competes with TS for the same binding site in the transporter, a reduction in TS susceptibility would be expected, as competition would decrease entry of the antibiotic into the cell. TS susceptibility decreased >8-fold with increasing concentrations of pyoverdine-Fe^3+ when FpvA was expressed (see Fig. S2A in the supplemental material).
Supplementary file : FIG S2 Checkerboard assays of the PA14 ΔfpvA ΔfpvB strain complemented with fpvA and fpvB in trans with TS and siderophores. […] Checkerboards of the PA14 ΔfpvA ΔfpvB pHERD20T-fpvB strain with TS and enterobactin (G), ferrioxamine E (H), and arthrobactin (I). Results are averaged from three independent biological replicates. Cells in the assay were grown in 10:90 + 2% arabinose. Download FIG S2, EPS file, 2.2 MB.
Checkerboards (8 rows by 8 columns) were conducted as previously described in a 96-well plate (Nunc) ([13], [14]). TS at 75× the final concentration dissolved in DMSO was added in columns from bottom to top in increasing concentrations. Siderophores at 75× the final concentration dissolved in DSMO were added from in rows from left to right in increasing concentrations. Four columns were used for vehicle controls (DMSO) and sterile controls. […] Plates were sealed to prevent evaporation and incubated at 37°C overnight in a shaking incubator (200 rpm). The next day, the OD600 was determined with a plate reader (Thermo Scientific) and normalized to percent of growth of the vehicle control (DMSO) after subtracting the OD600 from blank media.

[2] = system: PA14 mutant combinations that include ΔfoxA; assay: Growth phenotypes of deletion mutants, ΔfoxA combinations; conditions: any mutant combination with ΔfoxA; 10 μg/mL ferrioxamine E, 10:90
Description: (§1) PA14, ΔfpvA, ΔfpvB, and ΔfpvA ΔfpvB strains treated with TS (A) and DSX (B) in 10:90. Green indicates growth, and white indicates no growth. Growth is expressed as percent of control. The PA14 ΔfpvA ΔfpvB strain complemented with pHERD20T, fpvA, or fpvB treated with TS (C) and DSX (D) in 10:90. […] All experiments are averaged from three independent biological replicates. Blue indicates growth and white indicates no growth. (H) Summary of growth phenotypes of WT PA14 and combinations of single, double, triple, and quadruple deletion mutants in fpvA, fpvB, fiuA, and foxA. […] Green indicates growth, whereas no growth is indicated in white. […] Representative plates are shown.
(§2) If there were no transporters for a particular siderophore, the mutant would fail to grow due to iron restriction.

[3] = system: PA14 ΔfpvA ΔfpvB ΔfiuA ΔfoxA quadruple mutant; assay: Growth phenotypes of deletion mutants, quadruple mutant; conditions: 64 μg/mL DSX, 10 μg/mL siderophores, 10:90
Description: as §1, §2

FpvB = assay: Western blot of FLAG-tagged FpvB expression after compound treatment; conditions: WT PA14 fpvB-FLAG; 10 μg/mL siderophores, 64 μg/mL DSX, 10:90
PA14 ΔfpvB mutant = assay: Growth curves with DSX and siderophores, ΔfpvB; conditions: DSX 64 μg/mL or pyoverdine 10 μg/mL alone, 20 h, 10:90
Protocol: (§3) Supplementary file : FIG S1 (A) FpvB is expressed in WT PA14 and the ΔfpvA mutant grown in 10:90. PilF was used as a loading control for outer membrane proteins. (B) FpvA is expressed from WT PA14 grown in 10:90. […] PilF was used as a loading control for outer membrane proteins. (C) Growth curves of PA14 and mutants with DSX and different siderophores in 10:90. PA14, ΔfpvA, ΔfpvB, ΔfpvA ΔfpvB, and ΔpvdA ΔpchA strain growth. Blue indicates control, purple indicates treatment with 64 μg/mL DSX, yellow indicates treatment with 10 μg/mL pyoverdine (PA14), and red indicates treatment with 64 μg/mL DSX and 10 μg/mL pyoverdine (PA14). (D) ΔfpvA, ΔfpvA ΔfpvB, and ΔpvdA ΔpchA strain growth. Blue indicates control, purple indicates treatment with 64 μg/mL DSX, grey indicates treatment with 10 μg/mL ferrichrome, and red indicates treatment with 64 μg/mL DSX and 10 μg/mL ferrichrome. (E) ΔfpvA, ΔfpvA ΔfpvB, and ΔpvdA ΔpchA strain growth. […] Download FIG S1, EPS file, 8.5 MB.
(§4) Another explanation for the susceptibility of the ΔfpvA mutant to DSX is that the mutant produces less pyoverdine compared to WT cells due to loss of the signaling cascade that controls siderophore production in response to its binding to FpvA ([25]). To differentiate whether the fpvA mutant was susceptible to DSX because of reduced pyoverdine production or because FpvB was a poor pyoverdine transporter, we treated the WT, ΔfpvA, ΔfpvB, and ΔfpvA ΔfpvB strains with DSX (64 μg/mL) without and with exogenous pyoverdine (10 μg/mL) for 20 h (Fig. 1; see also Fig. S1C). Growth of the ΔfpvA mutant should be restored if there are functional pyoverdine transporters. […] The growth of the ΔfpvA ΔfpvB mutant was inhibited by DSX and pyoverdine, confirming previously published results ([18]).

PA14 ΔfpvA mutant [4] = assay: MIC assay, ΔfpvA mutant; conditions: Pseudomonas aeruginosa, PA14
Protocol: (§5) MIC assays were conducted as previously described ([13], [14]). Overnight cultures were grown in LB from a glycerol stock at 37°C with shaking (200 rpm). Subcultures in 10:90 (1:100 dilution) were cultured for 4 h. Cells were adjusted to an optical density at 600 nm (OD600) of 0.1/500 in 10:90. All compounds were serially diluted 2-fold in dimethyl sulfoxide (DMSO) or H2O at 75× the final concentration. Plates were sealed to prevent evaporation and incubated at 37°C overnight in a shaking incubator (200 rpm). The next day, the OD600 was determined with a plate reader (Thermo Scientific) and normalized to percent of growth of the vehicle control after subtracting the OD600 from blank media.

PA14 ΔpvdA ΔpchA mutant = assay: Growth curves with DSX and siderophores, ΔpvdA ΔpchA; conditions: DSX 64 μg/mL, 20 h
Protocol: as §3
(§6) As a control, a ΔpvdA ΔpchA mutant unable to make pyoverdine and pyochelin was also tested. Growth of this mutant was inhibited by DSX.

PA14 ΔfpvA mutants = assay: Growth phenotypes of deletion mutants, ΔfpvA mutants; conditions: 64 μg/mL DSX, 10:90
Description: as §1, §2

[5] = system: PA14 ΔfpvA ΔfpvB pHERD20T-fpvA; assay: MIC assay, ΔfpvA ΔfpvB complemented with fpvA; conditions: complementation with fpvA, arabinose induction
Protocol: (§7) The ΔfpvA ΔfpvB mutant was complemented in trans with pHERD20T-fpvA or pHERD20T-fpvB. pHERD20T is an arabinose-inducible vector with expression driven by the PBAD promoter under the control of AraC ([30]).
as §5

PA14 ΔfpvA mutant [6] = assay: Growth curves with DSX and siderophores, ΔfpvA; conditions: DSX 64 μg/mL or pyoverdine 10 μg/mL alone, 20 h, 10:90
Protocol: as §3, §4, §6

PA14 ΔfpvA ΔfpvB mutant [7] = assay: MIC assay, ΔfpvA ΔfpvB mutant; conditions: Pseudomonas aeruginosa, PA14
Protocol: as §5

[8] = system: PA14 ΔfpvA ΔfpvB pHERD20T-fpvB; assay: MIC assay, ΔfpvA ΔfpvB complemented with fpvB; conditions: complementation with fpvB, arabinose induction
Protocol: as §7, §5

PA14 = assay: Growth curves with DSX and siderophores, WT PA14; conditions: DSX 64 μg/mL or pyoverdine 10 μg/mL alone, 20 h, 10:90
Protocol: as §3, §4

PA14 ΔfpvA ΔfpvB mutant [9] = assay: Growth curves with DSX and siderophores, ΔfpvA ΔfpvB; conditions: DSX 64 μg/mL, pyoverdine 10 μg/mL, 20 h
Protocol: as §3, §4, §6

[10] = system: PA14 ΔfpvA ΔfpvB pHERD20T-fpvA T660C; assay: MIC assay, ΔfpvA ΔfpvB expressing FpvA T660C; conditions: 10:90 + 2% arabinose
Description: FpvA T660C was used previously to measure pyoverdine-Fe^3+ binding affinity ([32]). However, this technique has not been applied to FpvB. A high-confidence structural model of FpvB was generated using AlphaFold2 ([33], [34]) and aligned with the structure of FpvA (PDB accession number 2O5P) to identify a residue suitable for labeling, with the assumption that FpvA and FpvB undergo similar conformational changes upon ferrisiderophore binding (see Fig. S3A through C in the supplemental material). Based on this analysis, FpvB R648 was mutated to Cys. FpvA T660C and FpvB R648C were each expressed in trans in the ΔfpvA ΔfpvB mutant. […] We could also detect expression by fluorescence microscopy with peripheral labeling consistent with expression in the outer membrane (Fig. 3B). Labeling was undetectable in empty vector and WT controls (see Fig. S4A in the supplemental material).
Supplementary file : FIG S3 Overlay of FpvA and FpvB showing residues mutated to cysteine for labeling with maleimide dyes. FpvA (PDB accession number 2O5P) was superimposed with the AlphaFold2 model of FpvB. FpvA is shown in beige and FpvB in blue. […]
MIC assays were conducted as previously described ([13], [14]). […] The next day, the OD600 was determined with a plate reader (Thermo Scientific) and normalized to percent of growth of the vehicle control after subtracting the OD600 from blank media.

SMILES | effect of siderophore on TS susceptibility [1] | growth in the presence of compound [2] | growth in the presence of compound [3] | stimulation of FpvB expression (FpvB) | growth versus control (PA14 ΔfpvB mutant) | MIC (PA14 ΔfpvA mutant [4]) [µg/mL] | growth versus control (PA14 ΔpvdA ΔpchA mutant) | growth in the presence of compound (PA14 ΔfpvA mutants) | growth with DSX [5] | growth versus control (PA14 ΔfpvA mutant [6]) | MIC (PA14 ΔfpvA ΔfpvB mutant [7]) [µg/mL] | growth with DSX [8] | growth versus control (PA14) | growth versus control (PA14 ΔfpvA ΔfpvB mutant [9]) | growth with DSX [10]
O=C1CCC(=O)N(O)CCCCCNC(=O)CCC(=O)N(O)CCCCCNC(=O)CCC(=O)N(O)CCCCCN1 [ferrioxamine E] | None of those siderophores reduced TS susceptibility | inhibited | failed to grow | – | – | – | – | – | – | – | – | – | – | – | –
O=C(O)c1ccc(-n2nc(-c3ccccc3O)nc2-c2ccccc2O)cc1 [DSX, deferasirox] | – | – | failed to grow | None of the compounds stimulated expression | growth was similar between the control and DSX conditions | 8 (≈ 21.4 µM) | inhibited | unable to grow | restored growth | inhibited growth | 8 (≈ 21.4 µM) | could not restore growth | growth was similar between the control and DSX conditions | inhibited | restored growth with DSX
